Measurements as given in patent US7115593B2 (priority 2000, dated 2006).

The compounds below were run on Phytophthora infestans (assay: whole plant or invertebrate). Conditions: Phytophthora infestans, in Solanum lycopersicum, 72 h, read-out: Efficacy in %, single active compound, application rate 0.1 g/ha; tomato, protective, evaluation 3 days after inoculation.
Format: in vivo
For `Cc1noc(C)c1S(=O)(=O)n1c(Cl)nc2cc3c(cc21)OC(F)(F)O3` [compound of the formula (XXVII), 1-(3,5-dimethyl-isoxazol-4-sulphonyl)-2-chloro-6,6-difluoro-[1,3]-dioxolo-[4,5f]-benzimidazole], the pest or weed control at 0.1 g/ha was 30%. For `CC(C)OC(=O)NC(C(=O)NC(C)c1nc2ccc(F)cc2s1)C(C)C` (stereo not shown) [compound of the formula (I), isopropyl 1-({[1-(6-fluoro-1,3-benzothiazol-2-yl)ethyl]-amino}carbonyl)-2-methylpropylcarbamate], the pest or weed control at 0.1 g/ha was 47%.

Same assay, conditions: Phytophthora infestans, in Solanum lycopersicum, 72 h, read-out: Efficacy in %, single active compound, application rate 1 g/ha; tomato, protective, evaluation 3 days after inoculation
Compound `CC(C)OC(=O)NC(C(=O)NC(C)c1nc2ccc(F)cc2s1)C(C)C` (stereo not shown) [compound of the formula (I), isopropyl 1-({[1-(6-fluoro-1,3-benzothiazol-2-yl)ethyl]-amino}carbonyl)-2-methylpropylcarbamate] has a pest or weed control at 1 g/ha of 47%. `CO/N=C(/C1=NOCCO1)c1ccccc1Oc1ncnc(Oc2ccccc2Cl)c1F` [compound of the formula (XIV) (13)] gave a pest or weed control at 1 g/ha of 8%. `CO/C=C(/C(=O)OC)c1ccccc1Oc1cc(Oc2ccccc2C#N)ncn1` [compound of the formula (XII) (11), azoxystrobin] showed a pest or weed control at 1 g/ha of 55%. With `CO/N=C(/C(=O)OC)c1ccccc1CO/N=C(\C)c1cccc(C(F)(F)F)c1` [compound of the formula (XIII) (12), trifloxystrobin] the pest or weed control at 1 g/ha was 0%.

Same assay, conditions: Phytophthora infestans, in Solanum lycopersicum, 72 h, read-out: Efficacy in %, single active compound, application rate 10 g/ha; tomato, protective, evaluation 3 days after inoculation
With `CC(C)(C)C(O)C(Oc1ccc(Cl)cc1)n1cncn1` (stereo not shown) [triadimenol (IIb), 1-(4-chloro-phenoxy)-3,3-dimethyl-1-(1,2,4-triazol-1-yl)-butan-2-ol] the pest or weed control at 10 g/ha was 0%. For `O=[N+]([O-])c1cc(C(F)(F)F)c(Cl)c([N+](=O)[O-])c1Nc1ncc(C(F)(F)F)cc1Cl` [fluazinam (XXXI), fluazinam], the pest or weed control at 10 g/ha was 56%. Compound `CCC1(C(=O)NC(C)c2ccc(Cl)cc2)C(C)C1(Cl)Cl` (stereo not shown) [carpropamid (V), N-[1-(4-chloro-phenyl)-ethyl]-2,2-dichloro-1-ethyl-3-methyl-cyclopropane-carboxamide] has a pest or weed control at 10 g/ha of 0%. Work on `CC(C)(C)C(O)(CCc1ccc(Cl)cc1)Cn1cncn1` (stereo not shown) [tebuconazole (III), tebuconazole] yielded a pest or weed control at 10 g/ha of 5%. With `CC(C)(C)C(O)C(Oc1ccc(-c2ccccc2)cc1)n1cncn1` (stereo not shown) [bitertanol (IIc), 1-(4-phenyl-phenoxy)-3,3-dimethyl-1-(1,2,4-triazol-1-yl)-butan-2-ol] the pest or weed control at 10 g/ha was 4%. `CC1(C(=O)Nc2ccc(O)c(Cl)c2Cl)CCCCC1` [fenhexamid (VIII), fenhexamid] gave a pest or weed control at 10 g/ha of 13%. `O=[N+]([O-])/N=C1\NCCN1Cc1ccc(Cl)nc1` [imidacloprid (XXII), 1-[(6-chloro-3-pyridinyl)-methyl]-N-nitro-2-imidazolidinimine] showed a pest or weed control at 10 g/ha of 0%. With `OC(Cc1ccccc1Cl)(Cn1nc[nH]c1=S)C1(Cl)CC1` (stereo not shown) [compound of the formula (XXI) (20)] the pest or weed control at 10 g/ha was 2%.

Same assay, conditions: Phytophthora infestans, in Solanum lycopersicum, 72 h, read-out: Efficacy in %, single active compound, application rate 20 g/ha; tomato, protective, evaluation 3 days after inoculation
For `O=C1c2ccccc2C(=O)N1SC(Cl)(Cl)Cl` [folpet (XIX), folpet], the pest or weed control at 20 g/ha was 0%. With `N#Cc1c(Cl)c(Cl)c(Cl)c(C#N)c1Cl` [chlorothalonil (XXIX), chlorothalonil] the pest or weed control at 20 g/ha was 12%.

Same assay, conditions: single active compound, application rate 10 g/ha; tomato, protective, evaluation 3 days after inoculation
`CCCN(CC)CC1COC2(CCC(C(C)(C)C)CC2)O1` (stereo not shown) [spiroxamine (XI), 8-t-butyl-2-(N-ethyl-N-n-propyl-amino)-methyl-1,4-dioxaspiro[5,4]-decane] was tested, and the Efficacy in % was 0%.

Same assay, conditions: single active compound, application rate 20 g/ha; tomato, protective, evaluation 3 days after inoculation
`CN(C)S(=O)(=O)N(SC(F)(Cl)Cl)c1ccccc1` [dichlofluanid (IVa), dichlofluanid] was tested, and the Efficacy in % was 5%. For `Cc1ccc(N(SC(F)(Cl)Cl)S(=O)(=O)N(C)C)cc1` [tolylfluanid (IVb), tolylfluanid], the Efficacy in % was 21%. With “zinc propylene-1,2-bis-(dithiocarbamidate) [propineb (VI)]” the Efficacy in % was 19%. Work on mancozeb [mancozeb (VIIc)] yielded an Efficacy in % of 28%.

Same assay, conditions: single active compound, application rate 50 g/ha; tomato, protective, evaluation 3 days after inoculation
In the case of `[Cl-].[Cu+2].[Cu+2].[OH-].[OH-].[OH-]` [compound of the formula (XXXXVIa) (40), copper oxychloride], the Efficacy in % is reported as 0%.
